Laboratory results reported in PubChem BioAssay (NCI).
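48-hour exposure; five concentrations; linearly interpolated endpoints. Abbreviation: GI50, concentration required for 50% inhibition of growth. TGI denotes the concentration required for complete inhibition of growth.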

Tests used:
Test in all cases: growth of human tumour cells (NCI), 48 h
A549 NSCLC = tested on: A549 NSCLC
UACC-62 melanoma = tested on: UACC-62 melanoma
ACHN renal = tested on: ACHN renal
T-47D breast = tested on: T-47D breast
HCT-116 colon = tested on: HCT-116 colon
RPMI-8226 leukemia = tested on: RPMI-8226 leukemia
NCI-H522 lung = tested on: NCI-H522 lung
IGROV1 ovarian = tested on: IGROV1 ovarian
SK-MEL-28 melanoma = tested on: SK-MEL-28 melanoma
LOX IMVI melanoma = tested on: LOX IMVI melanoma
OVCAR-5 ovarian = tested on: OVCAR-5 ovarian
SF-539 CNS = tested on: SF-539 CNS
OVCAR-3 ovarian = tested on: OVCAR-3 ovarian
BT-549 breast = tested on: BT-549 breast
HCC-2998 colon = tested on: HCC-2998 colon
OVCAR-8 ovarian = tested on: OVCAR-8 ovarian
SN12C renal = tested on: SN12C renal
MOLT-4 leukemia = tested on: MOLT-4 leukemia
SNB-75 CNS = tested on: SNB-75 CNS
A498 renal = tested on: A498 renal
SNB-19 CNS = tested on: SNB-19 CNS
SK-OV-3 ovarian = tested on: SK-OV-3 ovarian
MCF7 breast = tested on: MCF7 breast
SR leukemia = tested on: SR leukemia
HOP-62 NSCLC = tested on: HOP-62 NSCLC
OVCAR-4 ovarian = tested on: OVCAR-4 ovarian
U251 CNS = tested on: U251 CNS
SK-MEL-5 melanoma = tested on: SK-MEL-5 melanoma
MDA-MB-435 = tested on: MDA-MB-435
NCI/ADR-RES ovarian = tested on: NCI/ADR-RES ovarian
SW-620 colon = tested on: SW-620 colon
CCRF-CEM leukemia = tested on: CCRF-CEM leukemia
MDA-MB-231 breast = tested on: MDA-MB-231 breast
M14 melanoma = tested on: M14 melanoma
HL-60(TB) leukemia = tested on: HL-60(TB) leukemia
SF-295 CNS = tested on: SF-295 CNS
COLO 205 colon = tested on: COLO 205 colon
NCI-H226 lung = tested on: NCI-H226 lung
UACC-257 melanoma = tested on: UACC-257 melanoma
KM12 colon = tested on: KM12 colon
UO-31 renal = tested on: UO-31 renal
EKVX NSCLC = tested on: EKVX NSCLC
DU-145 prostate = tested on: DU-145 prostate
HS 578T breast = tested on: HS 578T breast
NCI-H23 lung = tested on: NCI-H23 lung
HOP-92 NSCLC = tested on: HOP-92 NSCLC
RXF 393 renal = tested on: RXF 393 renal
SF-268 CNS = tested on: SF-268 CNS
TK-10 renal = tested on: TK-10 renal
786-0 renal = tested on: 786-0 renal
PC-3 prostate = tested on: PC-3 prostate
HT29 colon = tested on: HT29 colon
CAKI-1 renal = tested on: CAKI-1 renal
SK-MEL-2 melanoma = tested on: SK-MEL-2 melanoma
MALME-3M melanoma = tested on: MALME-3M melanoma
NCI-H460 lung = tested on: NCI-H460 lung
HCT-15 colon = tested on: HCT-15 colon

Compound `COC(=O)[C@@H]1CCCN1C(=O)[C@@H]1CCCN1C(=O)[C@H](Cc1ccccc1)NC(=S)Nc1cc(C(F)(F)F)cc(C(F)(F)F)c1` has a GI50 (A549 NSCLC) of 3.82 µM, a TGI (A549 NSCLC) greater than 100 µM and a GI50 (UACC-62 melanoma) of 3.3 µM. For the same compound, the TGI (UACC-62 melanoma) was 63.5 µM, the GI50 (ACHN renal) was 3.98 µM and the TGI (ACHN renal) was greater than 100 µM. For the same compound, the GI50 (T-47D breast) was 4.27 µM, the TGI (T-47D breast) was greater than 100 µM and the GI50 (HCT-116 colon) was 3.01 µM. For the same compound, the TGI (HCT-116 colon) was 15.2 µM, the GI50 (RPMI-8226 leukemia) was 3.36 µM and the TGI (RPMI-8226 leukemia) was 41 µM. It also gave a GI50 (NCI-H522 lung) of 3.17 µM, a TGI (NCI-H522 lung) of 9.6 µM and a GI50 (IGROV1 ovarian) of 7.24 µM. The TGI (IGROV1 ovarian) was greater than 100 µM, the GI50 (SK-MEL-28 melanoma) was 3.48 µM and the TGI (SK-MEL-28 melanoma) was greater than 100 µM. The GI50 (LOX IMVI melanoma) was 2.6 µM, the TGI (LOX IMVI melanoma) was 9.89 µM and the GI50 (OVCAR-5 ovarian) was 3.8 µM. It also gave a TGI (OVCAR-5 ovarian) of 42.4 µM, a GI50 (SF-539 CNS) of 4.51 µM and a TGI (SF-539 CNS) greater than 100 µM. For the same compound, the GI50 (OVCAR-3 ovarian) was 3.43 µM, the TGI (OVCAR-3 ovarian) was 9.98 µM and the GI50 (BT-549 breast) was 4.39 µM. For the same compound, the TGI (BT-549 breast) was 71.5 µM, the GI50 (HCC-2998 colon) was 2.65 µM and the TGI (HCC-2998 colon) was 7.06 µM. It also gave a GI50 (OVCAR-8 ovarian) of 4.31 µM, a TGI (OVCAR-8 ovarian) greater than 100 µM and a GI50 (SN12C renal) of 3.47 µM. It also gave a TGI (SN12C renal) greater than 100 µM, a GI50 (MOLT-4 leukemia) of 2.88 µM and a TGI (MOLT-4 leukemia) of 7.88 µM. For the same compound, the GI50 (SNB-75 CNS) was 2.06 µM, the TGI (SNB-75 CNS) was 61 µM and the GI50 (A498 renal) was 2.55 µM. The TGI (A498 renal) was 22.9 µM, the GI50 (SNB-19 CNS) was 3.77 µM and the TGI (SNB-19 CNS) was greater than 100 µM. It also gave a GI50 (SK-OV-3 ovarian) of 9.26 µM, a TGI (SK-OV-3 ovarian) greater than 100 µM and a GI50 (MCF7 breast) of 3.08 µM. It also gave a TGI (MCF7 breast) greater than 100 µM, a GI50 (SR leukemia) of 3.69 µM and a TGI (SR leukemia) of 24.9 µM. For the same compound, the GI50 (HOP-62 NSCLC) was 4.56 µM, the TGI (HOP-62 NSCLC) was 72.5 µM and the GI50 (OVCAR-4 ovarian) was 4.29 µM. For the same compound, the TGI (OVCAR-4 ovarian) was greater than 100 µM, the GI50 (U251 CNS) was 2.79 µM and the TGI (U251 CNS) was 13.2 µM. The GI50 (SK-MEL-5 melanoma) was 2.6 µM, the TGI (SK-MEL-5 melanoma) was 9.18 µM and the GI50 (MDA-MB-435) was 3.29 µM. For the same compound, the TGI (MDA-MB-435) was greater than 100 µM, the GI50 (NCI/ADR-RES ovarian) was 2.99 µM and the TGI (NCI/ADR-RES ovarian) was greater than 100 µM. It also gave a GI50 (SW-620 colon) of 5.11 µM, a TGI (SW-620 colon) greater than 100 µM and a GI50 (CCRF-CEM leukemia) of 3.54 µM. It also gave a TGI (CCRF-CEM leukemia) greater than 100 µM, a GI50 (MDA-MB-231 breast) of 2.04 µM and a TGI (MDA-MB-231 breast) of 5.6 µM. It also gave a GI50 (M14 melanoma) of 3.7 µM, a TGI (M14 melanoma) greater than 100 µM and a GI50 (HL-60(TB) leukemia) of 2.53 µM. For the same compound, the TGI (HL-60(TB) leukemia) was 5.49 µM, the GI50 (SF-295 CNS) was 2.16 µM and the TGI (SF-295 CNS) was 4.82 µM. It also gave a GI50 (COLO 205 colon) of 2.43 µM, a TGI (COLO 205 colon) of 5.85 µM and a GI50 (NCI-H226 lung) of 3.39 µM. The TGI (NCI-H226 lung) was greater than 100 µM, the GI50 (UACC-257 melanoma) was 2.92 µM and the TGI (UACC-257 melanoma) was 11.4 µM. It also gave a GI50 (KM12 colon) of 3.93 µM, a TGI (KM12 colon) greater than 100 µM and a GI50 (UO-31 renal) of 3.3 µM. For the same compound, the TGI (UO-31 renal) was greater than 100 µM, the GI50 (EKVX NSCLC) was 3.07 µM and the TGI (EKVX NSCLC) was greater than 100 µM. For the same compound, the GI50 (DU-145 prostate) was 5.06 µM, the TGI (DU-145 prostate) was greater than 100 µM and the GI50 (HS 578T breast) was 4.49 µM. For the same compound, the TGI (HS 578T breast) was greater than 100 µM, the GI50 (NCI-H23 lung) was 3.16 µM and the TGI (NCI-H23 lung) was greater than 100 µM. It also gave a GI50 (HOP-92 NSCLC) of 1.77 µM, a TGI (HOP-92 NSCLC) of 5.65 µM and a GI50 (RXF 393 renal) of 2.19 µM. The TGI (RXF 393 renal) was 7.41 µM, the GI50 (SF-268 CNS) was 4.83 µM and the TGI (SF-268 CNS) was greater than 100 µM. It also gave a GI50 (TK-10 renal) of 5.41 µM, a TGI (TK-10 renal) greater than 100 µM and a GI50 (786-0 renal) of 4.47 µM. The TGI (786-0 renal) was greater than 100 µM, the GI50 (PC-3 prostate) was 2.72 µM and the TGI (PC-3 prostate) was 26.2 µM. It also gave a GI50 (HT29 colon) of 2.76 µM, a TGI (HT29 colon) of 6.51 µM and a GI50 (CAKI-1 renal) of 3.55 µM. For the same compound, the TGI (CAKI-1 renal) was greater than 100 µM, the GI50 (SK-MEL-2 melanoma) was 2.93 µM and the TGI (SK-MEL-2 melanoma) was 7.39 µM. It also gave a GI50 (MALME-3M melanoma) of 5.53 µM, a TGI (MALME-3M melanoma) greater than 100 µM and a GI50 (NCI-H460 lung) of 3.4 µM. The TGI (NCI-H460 lung) was greater than 100 µM, the GI50 (HCT-15 colon) was 3.8 µM and the TGI (HCT-15 colon) was greater than 100 µM.
